In PubChem BioAssay AID192 (DTP/NCI, 2004):
Where “and” joins values, the source holds several entries; their conditions need not be identical. Identical values can stand only once. Toxic doses and inconclusive results are not listed. How the source made its calls: active means survival T/C of 150% or more; inactive means T/C below 125% in these data. Peptide text beside a SMILES is read from it. * marks the point of attachment. Cbz = O=C(OCc1ccccc1)*

System: BDF1 mice, B16 melanoma ip, median survival T/C
Test: NCI In Vivo Anticancer Drug Screen. Data for tumor model B16 Melanoma (intraperitoneal) in B6D2F1 (BDF1) mice
Conditions: endpoint: median survival time, higher = longer survival
Method in brief: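 Values are ratios of treated (T) to vehicle-control (C) measurements of survival or tumor size in tumor-bearing mice.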

[1] = dose: 50.0 mg/kg/injection, schedule: Q01DX009 (ip), vehicle: saline with Tween-80
[2] = dose: 100.0 mg/kg/injection, schedule: Q01DX009 (ip), vehicle: saline with Tween-80
[3] = dose: 200.0 mg/kg/injection, schedule: Q01DX009 (ip), vehicle: saline with Tween-80
[4] = dose: 3.12 mg/kg/injection, schedule: Q01DX009 (ip), vehicle: Klucel (hydroxypropylcellulose) (HPC)
[5] = dose: 6.25 mg/kg/injection, schedule: Q01DX009 (ip), vehicle: Klucel (hydroxypropylcellulose) (HPC)
[6] = dose: 12.5 mg/kg/injection, schedule: Q01DX009 (ip), vehicle: Klucel (hydroxypropylcellulose) (HPC)
[7] = dose: 200.0 mg/kg/injection, schedule: Q01DX009 (ip), vehicle: Klucel (hydroxypropylcellulose) (HPC)
[8] = dose: 25.0 mg/kg/injection, schedule: Q01DX009 (ip), vehicle: saline with Tween-80
[9] = dose: 25.0 mg/kg/injection, schedule: Q01DX009 (ip), vehicle: saline
[10] = dose: 100.0 mg/kg/injection, schedule: Q01DX009 (ip), vehicle: Klucel (hydroxypropylcellulose) (HPC)
[11] = dose: 25.0 mg/kg/injection, schedule: Q01DX009 (ip), vehicle: Klucel (hydroxypropylcellulose) (HPC)
[12] = dose: 50.0 mg/kg/injection, schedule: Q01DX009 (ip), vehicle: Klucel (hydroxypropylcellulose) (HPC)
[13] = dose: 1.56 mg/kg/injection, schedule: Q01DX009 (ip), vehicle: Klucel (hydroxypropylcellulose) (HPC)
[14] = dose: 100.0 mg/kg/injection, schedule: Q01DX009 (ip), vehicle: saline
[15] = dose: 200.0 mg/kg/injection, schedule: Q01DX009 (ip), vehicle: saline
[16] = dose: 50.0 mg/kg/injection, schedule: Q01DX009 (ip), vehicle: saline
[17] = dose: 400.0 mg/kg/injection, schedule: Q01DX009 (ip), vehicle: Klucel (hydroxypropylcellulose) (HPC)

Measured: T/C

CC(C)C(NC=O)C(=O)O (stereo not given)
inactive: [1] 101 % of control | [2] 97 % of control | [3] 92 % of control

CSCCC(NC(=O)C(Cc1ccccc1)NC(=O)OCc1ccccc1)C(=O)O (stereo not drawn) (Cbz-Phe-Met-OH; configuration not given here)
inactive: [1] 97 % of control | [2] 93 % of control

O=C(CBr)c1ccc(F)cc1
inactive: [4] 106 % of control | [5] 91 % of control | [6] 99 % of control

CP(=S)(c1ccccc1)P(C)(=S)c1ccccc1 (stereo not given)
inactive: [7] 119 % of control

COC(=O)CC(=O)C=P(c1ccccc1)(c1ccccc1)c1ccccc1
inactive: dose: 12.5 mg/kg/injection, schedule: Q01DX009 (ip), vehicle: saline with Tween-80 98 % of control | [8] 103 % of control | [1] 107 % of control | [2] 113 % of control

CCC(=O)NCC1(c2ccccc2)CCN(CC2COc3ccccc3O2)CC1 (stereo not given)
inactive: dose: 25.0 mg/kg/injection, schedule: Q04DX003 (ip), vehicle: saline 116 % of control | dose: 50.0 mg/kg/injection, schedule: Q04DX003 (ip), vehicle: saline 107 % of control | dose: 100.0 mg/kg/injection, schedule: Q04DX003 (ip), vehicle: saline 105 % of control

c1cc2c(c(CC3CO3)c1CC1CO1)OCCOCCOCCOCCO2 (stereo not given)
inactive: dose: 50.0 mg/kg/injection, schedule: Q01DX009 (ip), vehicle: saline + Tween-80 + alcohol 109 % of control | dose: 100.0 mg/kg/injection, schedule: Q01DX009 (ip), vehicle: saline + Tween-80 + alcohol 118 % of control

CN1CCC(C=C2c3ccccc3CCc3ccccc32)C1 (stereo not given)
inactive: dose: 1.56 mg/kg/injection, schedule: Q01DX009 (ip), vehicle: saline 102 % of control | dose: 3.12 mg/kg/injection, schedule: Q01DX009 (ip), vehicle: saline 100 % of control | [9] 102 % of control

CCOC(=O)Nc1ccc([N+](=O)[O-])cc1
inactive: [10] 113 % of control | [7] 103 % of control

CCC(C)C(C#N)(CCN(CC)CC)c1ccccc1 (stereo not given)
inactive: [11] 121 % of control | [12] 118 % of control | [10] 109 % of control

ClCCN(CCCl)c1ccc(/C=C/c2ccccc2)cc1
inactive: [5] 98 % of control | [6] 96 % of control | [11] 96 % of control | [12] 90 % of control | [10] 101 % of control

COC(=O)CC1(O)C=CC(=O)C=C1
inactive: [13] 95 % of control | dose: 2.5 mg/kg/injection, schedule: Q01DX009 (ip), vehicle: saline with Tween-80 98 % of control | [4] 96 % of control | dose: 5.0 mg/kg/injection, schedule: Q01DX009 (ip), vehicle: saline with Tween-80 102 % of control | [5] 97 % of control | dose: 10.0 mg/kg/injection, schedule: Q01DX009 (ip), vehicle: saline with Tween-80 93 % of control | [6] 94 % of control | dose: 20.0 mg/kg/injection, schedule: Q01DX009 (ip), vehicle: saline with Tween-80 102 % of control | [11] 91 % of control

Cc1c(C)c([N+](=O)[O-])c(Br)c(C)c1[N+](=O)[O-]
inactive: dose: 100.0 mg/kg/injection, schedule: Q04DX003 (ip), vehicle: Klucel (hydroxypropylcellulose) (HPC) 91 % of control | dose: 200.0 mg/kg/injection, schedule: Q04DX003 (ip), vehicle: Klucel (hydroxypropylcellulose) (HPC) 98 % of control

CCOC(CCC#N)c1ccc(Cl)cc1 (stereo not given)
inactive: [2] 98 % of control | [3] 96 % of control | dose: 400.0 mg/kg/injection, schedule: Q01DX009 (ip), vehicle: saline with Tween-80 97 % of control

N=C(N)c1nn(C2OC(CO)C(O)C2O)c2ncnc(N)c12 (stereo not given)
inactive: dose: 0.78 mg/kg/injection, schedule: Q01DX009 (ip), vehicle: Klucel (hydroxypropylcellulose) (HPC) 97 % of control | [13] 98 % of control | [4] 93 % of control and 99 % of control | [5] 102 % of control | [6] 90 % of control | [11] 101 % of control

CC1CCC(O)C1O (stereo not given)
inactive: [14] 120 % of control | [15] 120 % of control | dose: 400.0 mg/kg/injection, schedule: Q01DX009 (ip), vehicle: saline 122 % of control

c1ccc(OP2OCCO2)cc1
inactive: [9] 88 % of control | [16] 100 % of control | [14] 105 % of control | [15] 91 % of control

Cc1ccc(NC(=O)c2ccc(Cl)cc2)cc1Cl
inactive: dose: 75.0 mg/kg/injection, schedule: Q01DX009 (ip), vehicle: Klucel (hydroxypropylcellulose) (HPC) 100 % of control | dose: 150.0 mg/kg/injection, schedule: Q01DX009 (ip), vehicle: Klucel (hydroxypropylcellulose) (HPC) 115 % of control | dose: 300.0 mg/kg/injection, schedule: Q01DX009 (ip), vehicle: Klucel (hydroxypropylcellulose) (HPC) 88 % of control

Cc1c2ccc3ccccc3c2c[n+]2ccccc12
inactive: dose: 1.25 mg/kg/injection, schedule: Q01DX009 (ip), vehicle: Klucel (hydroxypropylcellulose) (HPC) 98 % of control | dose: 2.5 mg/kg/injection, schedule: Q01DX009 (ip), vehicle: Klucel (hydroxypropylcellulose) (HPC) 98 % of control | dose: 5.0 mg/kg/injection, schedule: Q01DX009 (ip), vehicle: Klucel (hydroxypropylcellulose) (HPC) 111 % of control | dose: 10.0 mg/kg/injection, schedule: Q01DX009 (ip), vehicle: Klucel (hydroxypropylcellulose) (HPC) 108 % of control | dose: 20.0 mg/kg/injection, schedule: Q01DX009 (ip), vehicle: Klucel (hydroxypropylcellulose) (HPC) 102 % of control

CCOC(=O)Nc1nccs1
inactive: [8] 97 % of control | [1] 89 % of control | [2] 89 % of control | [3] 89 % of control

COc1cc(NS(=O)(=O)c2ccc(C(C)=O)cc2)nc(OC)n1
inactive: [10] 100 % of control | [7] 100 % of control | [17] 93 % of control

CCC(C)C(CO)c1ccccc1 (stereo not given)
inactive: [8] 102 % of control | [1] 99 % of control

NNS(=O)(=O)c1ccc(OCC(=O)O)cc1
inactive: [10] 98 % of control | [7] 97 % of control | [17] 93 % of control

CN(C)C1=NC(=O)C(c2ccccc2)O1 (stereo not given)
inactive: dose: 12.5 mg/kg/injection, schedule: Q01DX009 (ip), vehicle: saline 117 % of control | [9] 105 % of control | [16] 111 % of control | [14] 114 % of control

CNC(=O)Nc1nc2ccc([N+](=O)[O-])cc2[nH]1
inactive: dose: 50.0 mg/kg/injection, schedule: Q01DX009 (ip), vehicle: suspension in saline 101 % of control | dose: 100.0 mg/kg/injection, schedule: Q01DX009 (ip), vehicle: suspension in saline 91 % of control | dose: 200.0 mg/kg/injection, schedule: Q01DX009 (ip), vehicle: suspension in saline 90 % of control | dose: 400.0 mg/kg/injection, schedule: Q01DX009 (ip), vehicle: suspension in saline 91 % of control

CC1(C)N=C(N)N=C(N)N1c1cc(Cl)ccc1Cl
inactive: [5] 94 % of control | [6] 92 % of control | [11] 89 % of control and 94 % of control

O=C(CBr)c1ccc(-c2ccccc2)cc1
inactive: dose: 12.5 mg/kg/injection, schedule: Q04DX003 (ip), vehicle: Klucel (hydroxypropylcellulose) (HPC) 88 % of control | dose: 25.0 mg/kg/injection, schedule: Q04DX003 (ip), vehicle: Klucel (hydroxypropylcellulose) (HPC) 102 % of control | [12] 93 % of control | dose: 50.0 mg/kg/injection, schedule: Q04DX003 (ip), vehicle: Klucel (hydroxypropylcellulose) (HPC) 94 % of control

CCOCCCN
inactive: [16] 122 % of control | [14] 122 % of control
